Counter-ions that a name gives are not always drawn. Like-named read-outs stand apart in the source and are kept apart here.
Columns and labels:
Format in all cases: physicochemical
[1] = physical stability on storage
[2] = dissolution rate compared with the free acid
[3] = solubility of the tromethamine salt
[4] = gravimetric vapor sorption (GVS) analysis
Description: At relative humidity above 80% RH, tromethamine salt of bimatoprost acid behaves hygroscopic with a a significant moisture uptake observed. The significant uptake of moisture may be a result of the large specific surface area of the material. On desorption, the adsorbed water was rapidly lost with no equilibrium established. At the end of the gravimetric vapor sorption (GVS) cycle, at 40% RH, the overall sample mass increased by 5 wt %.

O=C(O)CCC/C=C/CC1C(O)CC(O)C1/C=C/C(O)CCc1ccccc1 (stereo not shown) [tromethamine salt of bimatoprost acid, tromethamine salt of 7-[3,5-Dihydroxy-2-(3-hydroxy-5-phenyl-pent-1-enyl)-cyclopentyl]-hept-5-enoic acid]
physical stability ([1]; 25° C./60% RH in open container closure): > 3 months
physical stability ([1]; 40° C./75% RH in closed container closure): > 3 months
dissolution rate [2]: faster dissolution rate than the free acid
solubility ([3]; aqueous buffer, at pH 6.5, read-out: solubility): > 250 mg/mL
solubility ([3]; in formulation vehicles, no surfactant needed): ~25 w/v %
GVS analysis: deliquescence ([4]; 90% RH): no deliquescence
GVS analysis: hydrate formation ([4]; 90% RH): no hydrate
overall sample mass increase at the end of the GVS cycle ([4]; end of GVS cycle, at 40% RH): 5 wt %
XRPD re-analysis post GVS analysis (change in crystalline form) ([4]; post GVS analysis): no change in the crystalline Form 1
hygroscopic behaviour (moisture uptake) ([4]; relative humidity above 80% RH): hygroscopic
